# Where “and” joins values, the source holds several entries; their conditions need not be identical. Equal values may be shown once.
# Experiments:
# OVCAR3 cells [1] = assay: Survival of intraperitoneal tumor-bearing nude mice, OVCAR3; format: in vivo, human EOC cells in BALB/c-Nude mice
# Text: Subsequently, we selected 4 representative EOC cell lines (Figure S1F,G, Supporting Information) and validated the role of SPC25 in mediating platinum resistance in EOC through a series of in vitro and in vivo experiments. […] To further establish an EOC mouse model, we intraperitoneally injected BALB/c‐Nude mice with EOC cells with stable luciferase expression. CDDP treatment (three times per week, a week as a cycle) was initiated when the bioluminescence signal reached 2 × 10^7 p/s/cm^2/sr.
# In the intraperitoneal tumor model, 1 × 10^6 of the indicated cells stably expressing luciferase were injected intraperitoneally into the mice. Treatment with saline (Vehicle), CDDP (5 mg/kg, 3 times per week for 1 week), CBP1 (10 mg/kg, once in 2 days), or a combination of CDDP (5 mg/kg, 3 times per week for 1 week) and CBP1 (10 mg/kg, once in 2 days) was initiated when the bioluminescence signal reached 2 × 10^7 p/s/cm^2/sr for 6 weeks of continuous treatment cycles. The mice were sacrificed when they became moribund, as determined by an observer blinded to the treatment. Finally, their tumors were excised for qRT‐PCR and Western blotting.
# OVCAR3 cells [2] = assay: Cell Counting Kit-8 viability, OVCAR3; format: cell-based, human; conditions: SPC25-overexpressing OVCAR3
# Method: (§1) Cell Viability Assay: The indicated cells were seeded into 96-well plates at a density of 4 × 10^3 cells per well. Next, the Cell Counting Kit-8 reagent (Dojindo) was added to the wells, followed by incubation at 37°C for 2 h in the dark, after which the optical density at 450 nm was determined on a microplate reader (EPOCH2; BioTek, USA). Each cell line was represented using triplicate wells, and the experiment was repeated three times.
# COV644 cells = assay: Cell Counting Kit-8 viability, COV644; format: cell-based, human; conditions: SPC25-overexpressing COV644
# Method: as §1
# OVCAR3 cells [3] = assay: Annexin V/PI apoptosis, OVCAR3; format: cell-based, human; conditions: for PI+/AnnexinV+: replicates #1-#3
# Method: (§2) Fluorescence-Activated Cell Sorting Assay: For apoptosis analysis, we used an Annexin V-FITC/PI Apoptosis Detection Kit (#A211-01; Vazyme Biotech), according to the manufacturer’s instructions. We considered the total proportion of Annexin V-positive cells (quadrants II and III) to be the apoptotic rate, regardless of the PI status. All samples were analyzed on a flow cytometer (cytoFLEX LX; Beckman Coulter, Indianapolis, IN, USA), and percentages of apoptotic cells were analyzed using CytExpert (Beckman Coulter).
# SKOV3 cells = assay: Annexin V/PI apoptosis, SKOV3; format: cell-based, human; conditions: replicates #1-#3
# Method: as §2
smiles,measurement,setting,value
"[NH2][Pt]([NH2])([Cl])[Cl] [CDDP, cisplatin]","Survival, days after CDDP treatment","OVCAR3 cells [1]; OVCAR3 SPC25-overexpressing, status 1, individual mice",50 days and 52 days and 51 days and 55 days and 62 days
same,"Survival, days after CDDP treatment","OVCAR3 cells [1]; OVCAR3 Vector, status 0, individual mice",70 days and 64 days and 82 days and 85 days
same,"Survival, days after CDDP treatment","OVCAR3 cells [1]; OVCAR3 Vector, status 1, individual mice",58 days and 62 days
same,survival of tumor-bearing mice,"OVCAR3 cells [1]; SPC25-overexpressing OVCAR3, CDDP",decreased survival
same,cell growth in presence of CDDP,OVCAR3 cells [2],significantly promoted growth
same,cell growth in presence of CDDP,COV644 cells,significantly promoted growth
same,PI+/AnnexinV+,"OVCAR3 cells [3]; OVCAR3 SPC25, CDDP 10μM",9.75 and 8.73 and 6.45
same,PI+/AnnexinV+,"OVCAR3 cells [3]; OVCAR3 Vector, CDDP 10μM",21.37 and 25.13 and 28.24
same,CDDP-induced apoptosis,OVCAR3 cells [3]; SPC25-overexpressing OVCAR3,considerably reduced
same,PI+/AnnexinV+,"SKOV3 cells; SKOV3 Scramble, CDDP 10μM",8.18 and 6.89 and 9.75
same,PI+/AnnexinV+,"SKOV3 cells; SKOV3 sh-SPC25#1, CDDP 10μM",30.36 and 26.95 and 22.58
same,PI+/AnnexinV+,"SKOV3 cells; SKOV3 sh-SPC25#2, CDDP 10μM",29.63 and 24.64 and 23.77
